Reference: patent US11572399B2, “Long-acting GIP peptide analogues” (University of Copenhagen, priority 2017, dated 2023)
Peptide text beside a SMILES is read from it. * marks the point of attachment. C16 diacid = O=C(O)CCCCCCCCCCCCCCC(=O)*

Molecular target: T1, human GIP receptor (Homo sapiens, UniProt P48546)
T1 construct: host or cells: COS-7, transient transfection (calcium phosphate), cDNA in pCMV-Script
T1 sequence (P48546 22-466): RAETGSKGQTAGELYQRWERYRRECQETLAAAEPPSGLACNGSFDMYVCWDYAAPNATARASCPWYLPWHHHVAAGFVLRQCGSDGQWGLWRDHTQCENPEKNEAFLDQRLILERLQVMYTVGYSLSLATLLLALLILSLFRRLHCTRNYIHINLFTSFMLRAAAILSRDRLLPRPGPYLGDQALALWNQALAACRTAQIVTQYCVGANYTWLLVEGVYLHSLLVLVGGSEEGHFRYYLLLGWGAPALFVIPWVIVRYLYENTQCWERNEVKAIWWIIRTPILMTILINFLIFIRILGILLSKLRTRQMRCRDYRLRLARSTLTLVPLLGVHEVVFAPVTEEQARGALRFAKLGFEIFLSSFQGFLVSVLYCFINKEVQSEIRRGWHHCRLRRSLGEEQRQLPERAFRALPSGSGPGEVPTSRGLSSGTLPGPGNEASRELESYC
Test: cAMP accumulation assay, agonism (ligand alone)
Format: cell-based
Conditions: COS-7 cells, Table 1; for Emax: COS-7, intrinsic cAMP activity; for EC50: read-out: cAMP agonism nM (EC50)
Experimental: COS-7 cells were cultured at 10% CO2 and 37° C. in Dulbecco's modified Eagle's medium 1885 supplemented with 10% fetal bovine serum, 2 mM glutamine, 180 units/ml penicillin, and 45 µg/ml streptomycin. Transient transfection of the COS-7 cells for cAMP accumulation and competition binding was performed using the calcium phosphate precipitation method with the addition of chloroquine^46-47.
Transient transfected COS-7 cells expressing the human GIP receptor were seeded in white 96-well plates with a density of 3.5*10^4/well. The day after, the cells were washed twice with Hepes buffered saline (HBS) buffer and incubated with HBS and 1 mM 3-isobutyl-1-methylxanthine (IBMX) for 30 min at 37° C. To test for agonistic properties, ligands were added and incubated for 30 min at 37° C. In order to test for antagonistic properties, the cells were preincubated with the antagonists for 10 min prior to the addition of the agonist and subsequent incubated for 20 additional min. The HitHunter™ cAMP XS assay (DiscoveRx) was carried out according to the manufacturer's instructions.
IC50, EC50, and Ki values were determined by nonlinear regression. These were carried out with the GraphPad Prism 6.0 software (GraphPad, San Diego, Calif., USA) and Microsoft Excel™. Ki values were based on the formula for one class of binding sites in homologous competition binding studies and the Cheng Prussoffs formula, respectively (DeBlasi et al., 1989). To determine the HSA binding potential, the fold change in affinity (as determined by IC50) was calculated as IC50 (plus HSA)/IC50 (minus HSA).

Q: What does the source list for `CCCCCCCCCCCCCCCC(=O)NCCCC[C@H](NC(=O)[C@H](CCC(N)=O)NC(=O)[C@H](C)NC(=O)[C@H](CC(C)C)NC(=O)[C@H](CC(C)C)NC(=O)[C@H](Cc1c[nH]c2ccccc12)NC(=O)[C@H](CC(N)=O)NC(=O)[C@@H](NC(=O)[C@H](Cc1ccccc1)NC(=O)[C@H](CC(=O)O)NC(=O)[C@H](CCC(N)=O)NC(=O)[C@H](CCC(N)=O)NC(=O)[C@H](Cc1c[nH]cn1)NC(=O)[C@@H](NC(=O)[C@H](CCCCN)NC(=O)[C@H](CC(=O)O)NC(=O)[C@H](CCSC)NC(=O)[C@H](C)NC(=O)[C@@H](NC(=O)[C@H](CO)NC(=O)[C@H](Cc1ccc(O)cc1)NC(=O)[C@H](CC(=O)O)NC(=O)[C@H](CO)NC(=O)[C@@H](NC(=O)[C@H](Cc1ccccc1)NC(=O)[C@@H](N)[C@@H](C)O)[C@@H](C)CC)[C@@H](C)CC)[C@@H](C)CC)C(C)C)C(N)=O` [AT126, [hGIP(5-30)NH2—C16/30]]?
A: Emax: 75%; EC50: 316 nM

Q: For `CC[C@H](C)[C@H](NC(=O)[C@H](CO)NC(=O)[C@H](Cc1ccc(O)cc1)NC(=O)[C@H](CC(=O)O)NC(=O)[C@H](CO)NC(=O)[C@@H](NC(=O)[C@H](Cc1ccccc1)NC(=O)[C@@H](N)CCCCNC(=O)CCCCCCCCCCCCCCC(=O)O)[C@@H](C)CC)C(=O)N[C@@H](C)C(=O)N[C@@H](CCSC)C(=O)N[C@@H](CC(=O)O)C(=O)N[C@@H](CCCCN)C(=O)N[C@H](C(=O)N[C@@H](Cc1c[nH]cn1)C(=O)N[C@@H](CCC(N)=O)C(=O)N[C@@H](CCC(N)=O)C(=O)N[C@@H](CC(=O)O)C(=O)N[C@@H](Cc1ccccc1)C(=O)N[C@H](C(=O)N[C@@H](CC(N)=O)C(=O)N[C@@H](Cc1c[nH]c2ccccc12)C(=O)N[C@@H](CC(C)C)C(=O)N[C@@H](CC(C)C)C(=O)N[C@@H](C)C(=O)N[C@@H](CCC(N)=O)C(=O)N[C@@H](CCCCN)C(N)=O)C(C)C)[C@@H](C)CC` [AT293, [hGIP(5-30)NH2[T5KK]-C16diacid/5]], which Emax is on record?
A: Its Emax is 0%.

Q: For `CC[C@H](C)[C@H](NC(=O)[C@H](CO)NC(=O)[C@H](Cc1ccc(O)cc1)NC(=O)[C@H](CC(=O)O)NC(=O)[C@H](CO)NC(=O)[C@@H](NC(=O)[C@H](Cc1ccccc1)NC(=O)[C@@H](NC(=O)CNC(=O)[C@@H](N)CCCCNC(=O)CCCCCCCCCCCCCCC(=O)O)[C@@H](C)O)[C@@H](C)CC)C(=O)N[C@@H](C)C(=O)N[C@@H](CCSC)C(=O)N[C@@H](CC(=O)O)C(=O)N[C@@H](CCCCN)C(=O)N[C@H](C(=O)N[C@@H](Cc1c[nH]cn1)C(=O)N[C@@H](CCC(N)=O)C(=O)N[C@@H](CCC(N)=O)C(=O)N[C@@H](CC(=O)O)C(=O)N[C@@H](Cc1ccccc1)C(=O)N[C@H](C(=O)N[C@@H](CC(N)=O)C(=O)N[C@@H](Cc1c[nH]c2ccccc12)C(=O)N[C@@H](CC(C)C)C(=O)N[C@@H](CC(C)C)C(=O)N[C@@H](C)C(=O)N[C@@H](CCC(N)=O)C(=O)N[C@@H](CCCCN)C(N)=O)C(C)C)[C@@H](C)CC` [AT294, [hGIP(3-30)NH2[E3K]-C16diacid/3]], which Emax is on record?
A: Its Emax is 74%.

Q: How did the Emax turn out when `CC[C@H](C)[C@H](NC(=O)[C@H](CO)NC(=O)[C@H](Cc1ccc(O)cc1)NC(=O)[C@H](CC(=O)O)NC(=O)[C@H](CO)NC(=O)[C@@H](NC(=O)[C@H](Cc1ccccc1)NC(=O)[C@@H](NC(=O)CNC(=O)[C@@H](N)CCC(=O)O)[C@@H](C)O)[C@@H](C)CC)C(=O)N[C@@H](C)C(=O)N[C@@H](CCSC)C(=O)N[C@@H](CC(=O)O)C(=O)N[C@@H](CCCCN)C(=O)N[C@H](C(=O)N[C@@H](Cc1c[nH]cn1)C(=O)N[C@@H](CCC(N)=O)C(=O)N[C@@H](CCC(N)=O)C(=O)N[C@@H](CC(=O)O)C(=O)N[C@@H](Cc1ccccc1)C(=O)N[C@H](C(=O)N[C@@H](CC(N)=O)C(=O)N[C@@H](Cc1c[nH]c2ccccc12)C(=O)N[C@@H](CC(C)C)C(=O)N[C@@H](CCCCNC(=O)CCCCCCCCCCCCCCC(=O)O)C(=O)N[C@@H](C)C(=O)N[C@@H](CCC(N)=O)C(=O)N[C@@H](CCCCN)C(N)=O)C(C)C)[C@@H](C)CC` [AT316, [hGIP(3-30)NH2[L27K]-C16diacid/27]] (H-EGTFISDYSIAMDKIHQQDFVNWLK(C16 diacid)AQK-NH2; N-terminus assumed) was run?
A: The Emax was 6.2%.

Q: How did the Emax turn out when `CCCCCCCCCCCCCCCC(=O)NCCCC[C@H](NC(=O)[C@H](CCC(N)=O)NC(=O)[C@H](C)NC(=O)[C@H](CC(C)C)NC(=O)[C@H](CC(C)C)NC(=O)[C@H](Cc1c[nH]c2ccccc12)NC(=O)[C@H](CC(N)=O)NC(=O)[C@@H](NC(=O)[C@H](Cc1ccccc1)NC(=O)[C@H](CC(=O)O)NC(=O)[C@H](CCC(N)=O)NC(=O)[C@H](CCC(N)=O)NC(=O)[C@H](Cc1c[nH]cn1)NC(=O)[C@@H](NC(=O)[C@H](CCCCN)NC(=O)[C@H](CC(=O)O)NC(=O)[C@H](CCSC)NC(=O)[C@H](C)NC(=O)[C@@H](NC(=O)[C@H](CO)NC(=O)[C@H](Cc1ccc(O)cc1)NC(=O)[C@H](CC(=O)O)NC(=O)[C@H](CO)NC(=O)[C@@H](NC(=O)[C@H](Cc1ccccc1)NC(=O)[C@@H](NC(=O)CNC(=O)[C@@H](N)CCC(=O)O)[C@@H](C)O)[C@@H](C)CC)[C@@H](C)CC)[C@@H](C)CC)C(C)C)C(N)=O` [AT106, [hGIP(3-30)NH2—C16/30]] was run?
A: Its Emax is 64%.

Q: `CC[C@H](C)[C@H](NC(=O)[C@H](CO)NC(=O)[C@H](Cc1ccc(O)cc1)NC(=O)[C@H](CC(=O)O)NC(=O)[C@H](CO)NC(=O)[C@@H](NC(=O)[C@H](Cc1ccccc1)NC(=O)[C@@H](NC(=O)CNC(=O)[C@@H](N)CCC(=O)O)[C@@H](C)O)[C@@H](C)CC)C(=O)N[C@@H](C)C(=O)N[C@@H](CCSC)C(=O)N[C@@H](CC(=O)O)C(=O)N[C@@H](CCCCN)C(=O)N[C@H](C(=O)N[C@@H](Cc1c[nH]cn1)C(=O)N[C@@H](CCC(N)=O)C(=O)N[C@@H](CCC(N)=O)C(=O)N[C@@H](CC(=O)O)C(=O)N[C@@H](Cc1ccccc1)C(=O)N[C@@H](CCCCNC(=O)CCCCCCCCCCCCCCC(=O)O)C(=O)N[C@@H](CC(N)=O)C(=O)N[C@@H](Cc1c[nH]c2ccccc12)C(=O)N[C@@H](CC(C)C)C(=O)N[C@@H](CC(C)C)C(=O)N[C@@H](C)C(=O)N[C@@H](CCC(N)=O)C(=O)N[C@@H](CCCCN)C(N)=O)[C@@H](C)CC` [AT312, [hGIP(3-30)NH2[V23K]-C16diacid/23]] (H-EGTFISDYSIAMDKIHQQDFK(C16 diacid)NWLLAQK-NH2; N-terminus assumed) was tested. Which Emax did it give?
A: The Emax was 54%.

Q: Which Emax does the source give for `CCCCCCCCCCCCCC(=O)NCCCC[C@H](NC(=O)[C@H](CCC(N)=O)NC(=O)[C@H](C)NC(=O)[C@H](CC(C)C)NC(=O)[C@H](CC(C)C)NC(=O)[C@H](Cc1c[nH]c2ccccc12)NC(=O)[C@H](CC(N)=O)NC(=O)[C@@H](NC(=O)[C@H](Cc1ccccc1)NC(=O)[C@H](CC(=O)O)NC(=O)[C@H](CCC(N)=O)NC(=O)[C@H](CCC(N)=O)NC(=O)[C@H](Cc1c[nH]cn1)NC(=O)[C@@H](NC(=O)[C@H](CCCCN)NC(=O)[C@H](CC(=O)O)NC(=O)[C@H](CCSC)NC(=O)[C@H](C)NC(=O)[C@@H](NC(=O)[C@H](CO)NC(=O)[C@H](Cc1ccc(O)cc1)NC(=O)[C@H](CC(=O)O)NC(=O)[C@H](CO)NC(=O)[C@@H](NC(=O)[C@H](Cc1ccccc1)NC(=O)[C@@H](NC(=O)CNC(=O)[C@@H](N)CCC(=O)O)[C@@H](C)O)[C@@H](C)CC)[C@@H](C)CC)[C@@H](C)CC)C(C)C)C(N)=O` [AT112, [hGIP(3-30)NH2—C14/30]] here?
A: Its Emax is 29%.

Q: For `CC[C@H](C)[C@H](NC(=O)[C@H](CCCCN)NC(=O)[C@H](CC(=O)O)NC(=O)[C@H](CCSC)NC(=O)[C@H](C)NC(=O)[C@H](CCCCNC(=O)CCCCCCCCCCCCCCC(=O)O)NC(=O)[C@H](CO)NC(=O)[C@H](Cc1ccc(O)cc1)NC(=O)[C@H](CC(=O)O)NC(=O)[C@H](CO)NC(=O)[C@@H](NC(=O)[C@H](Cc1ccccc1)NC(=O)[C@@H](NC(=O)CNC(=O)[C@@H](N)CCC(=O)O)[C@@H](C)O)[C@@H](C)CC)C(=O)N[C@@H](Cc1c[nH]cn1)C(=O)N[C@@H](CCC(N)=O)C(=O)N[C@@H](CCC(N)=O)C(=O)N[C@@H](CC(=O)O)C(=O)N[C@@H](Cc1ccccc1)C(=O)N[C@H](C(=O)N[C@@H](CC(N)=O)C(=O)N[C@@H](Cc1c[nH]c2ccccc12)C(=O)N[C@@H](CC(C)C)C(=O)N[C@@H](CC(C)C)C(=O)N[C@@H](C)C(=O)N[C@@H](CCC(N)=O)C(=O)N[C@@H](CCCCN)C(N)=O)C(C)C` [AT303, [hGIP(3-30)NH2[I12K]-C16diacid/12]] (H-EGTFISDYSK(C16 diacid)AMDKIHQQDFVNWLLAQK-NH2; N-terminus assumed), which Emax is on record?
A: Its Emax is 24.2%.

Q: What about the EC50 of the same compound?
A: The EC50 was 28 nM.
